Results from patent US8541628B2, “Complex cationic lipids having quaternary nitrogens therein” (Vical Incorporated, priority 1995, dated 2013).
“Also recorded” adds a separate entry of the source.

Columns and labels:
murine B16 tumor cells = assay: Intraperitoneal tumor assay (CAT DNA, CAT activity in tumors); type: in vivo, C57/B16 mice; conditions: 0.5 mg CAT DNA i.p., 10:1 molar ratio of cytofectin:DNA, tumors two days later, FIG. 5; for CAT expression in tumor cells: control DNA alone
Experimental: Two hundred thousand murine B16 tumor cells in 500 μl RPMI were injected intraperitoneally into C57/B16 mice at day 0. At day 7-14, mice received intraperitoneal injections of 0.5 mg CAT DNA in 1.5 ml saline containing cytofectin at a 10:1 molar ratio of cytofectin:DNA. The cationic lipids used were DMRIE, GAP-DMRIE, GAP-DLRIE, and GMU-DLRIE. Two days later, tumors were collected, extracted and assayed for CAT activity as described in Example 7. The CAT activities observed with the cytofectin formulations is compared to a control receiving DNA alone in FIG. 5. […] CAT activity was greatest in cells transfected with DMRIE.

[1] = tested on: influenza nuclear protein (NP) antibody titers; type: in vivo, Balb/c mice; conditions: cytofectin:DOPE 1:1, pDNA-phosphate/cytofectin 4:1, serum at 6 weeks, FIG. 6; for activity in NP antibody assay compared with naked DNA alone: 10 μgr pDNA per animal, day 0 and 3 weeks
COS7 monkey kidney cells = assay: In vitro transfection of COS7 cells (pRSV lacZ, β-galactosidase expression; DMRIE as reference standard); type: cell-based; conditions: for Activity Cos7: cytofectin activity relative to DMRIE, comparison symbols, key not given
Experimental: (§1) Solutions of a DMRIE or GMU-DMRIE in chloroform were prepared on a weight to volume (w/v) basis. Aliquots of cationic lipid and neutral lipid (when used) were transferred aseptically to sterile vials in amounts calculated to provide the relative and absolute lipid concentrations desired upon reconstitution with 1 ml of aqueous vehicle. Bulk chloroform was removed with a stream of dry nitrogen, and the vials were treated with high vacuum overnight to remove any residual solvent.
(§2) Plasmid DNA at 5 mg/ml of phosphate buffered saline (PBS) as well as the dried, formulated cytofectin-neutral lipid mixture were suspended in OPTIMEM™ (Gibco BRL) and mixed together in 96 well plates at the desired mass/molar ratio as indicated in the Tables. The DNA-lipid complexes were added to the cells within 2 hours after mixing.
(§3) All cells were passaged 1:5 to 1:10 in 10% fetal bovine serum (FBS) and Dulbecco's Modified Eagles medium (DMEM). All cells were expanded through 10 doubling passages upon receipt and aliquots were stored frozen. Upon re-expansion, all cells were used for transfection studies before another 10 passages.
(§4) On day 0, 20,000 cells in 100 microliters 10% FEBS/90% DMEM were seeded into each well of 96-well culture plates (Nunc) and cultured overnight in a 5% CO2 incubator at 37° C. On Day 1, the medium was aspirated carefully without dislodging cells, and 100 microliters of GMU-DMRIE/pRSV lacZ/DOPE in serum-free OPTIMEM™ (Gibco BRL) was added. DMRIE was used as a reference standard. The lacZ gene encodes the enzyme β-galactosidase which can be assayed colorimetricaly. The cationic lipid:DOPE ratios varied for each well. After 4 hours of culture, 50 microliters 30% FBS/70% OPTIMEM™ was added to each well. On Day 2, each well received 100 microliters 10% FEBS/90% OPTIMEM™. On Day 3, the medium was removed and 50 microliters lysis buffer (0.1% Triton-X100 in 250 mM Tris, pH 8.0) was added and the plates were stored at […] for at least 20 hours.

[2] = tested on: C2C12 mouse myoblast muscle cells; assay: In vitro transfection of C2C12 cells (pRSV lacZ, β-galactosidase expression; DMRIE as reference standard); type: cell-based; conditions: for Activity C2C12: cytofectin activity relative to DMRIE, comparison symbols, key not given
Experimental: as §1, §2, §3, §4

BF16F10 melanoma tumors = assay: Subcutaneous melanoma tumor model (intratumoral cytofectin/CAT plasmid complex, CAT activity); type: in vivo, BALB/C mice; conditions: intratumoral injection; tumors collected after 48 hours; FIG. 7
Experimental: Tumors are prepared by injecting a suspension of tumor cells subcutaneously on the side of a mouse strain which is compatible with the specific tumor type. The tumors are periodically measured. Once they have reached a size suitable for injection, the tumor volume is approximated based on the measured diameter assuming a spherical tumor. A complex of the cytofectin to be evaluated with a plasmid encoding a reporter gene in a volume of saline equal to the volume of the tumor to be treated is then injected at a flow rate optimized for the particular tumor type. After an appropriate time, the tumors are collected, frozen, then ground up. The reporter gene product is subsequently extracted and the quantity which was expressed is determined using extraction and assay conditions appropriate for the particular gene product being used. A variety of tumor types may be evaluated using this general technique, and different reporter genes are more or less appropriate depending on the tumor type. A specific example of this assay involving melanoma tumors is provided in Example 14 below.
BF16F10 melanoma tumors are propagated in 90% RPMI 1640/10% Fetal Bovine Serum. The tumors are injected subcutaneously into the side of BALB/C mice in 75 μL of a suspension containing approximately 10^6 cells/mL tissue culture medium. When the tumors have reached 4.5 to 7 mm in diameter the volume of each individual tumor is calculated by measuring the diameter of the tumor and assuming a spherical tumor. For each individual tumor, a volume of the cytofectin/CAT plasmid complex in saline equivalent to the calculated volume of the tumor is injected into the tumor at a rate of 2 mL/min. After 48 hours, the tumors are collected, frozen, ground up, and extracted with 1.5 mL of extraction buffer as described in Example 3. CAT activity is quantitated as described below. […]

Compound	activity in NP antibody assay compared with naked DNA alone [1]	Activity Cos7 (COS7 monkey kidney cells)	Activity C2C12 [2]	further results
CCCCCCCCCCCCCCOCC(C[N+](C)(C)CCCN)OCCCCCCCCCCCCCC (centres unmarked) [GAP-DMRIE]	–	–	–	CAT activity, cytofectins compared with one another (murine B16 tumor cells): significant activity; CAT expression in tumor cells (murine B16 tumor cells): significant CAT expression
CCCCCCCCCCCCOCC(C[N+](C)(C)CCCNC(=O)NC)OCCCCCCCCCCCC (centres unmarked) [GMU-DLRIE]	–	–	–	CAT expression in tumor cells (murine B16 tumor cells): significant CAT expression
CCCCCCCCCCCCOCC(C[N+](C)(CCCN)CCCN)OCCCCCCCCCCCC (centres unmarked) [BPA-DLRIE]	greater activity than naked DNA alone	–	–	activity in NP antibody assay, among the compounds tested [1]: particularly high activity
Hydroxypropyl DMRIE Methyl Carbamate [ΥMC]	–	≈	≈	–
CCCCCCCCCCCCCCOCC(C[N+](C)(C)CCCCNC(=O)NC)OCCCCCCCCCCCCCC.[Br-] (centres unmarked) [DMU, δ-aminobutyl DMRIE, Methyl Urea]	–	–	≧	–
γ-aminopropyl-DMRIE, α-arabonosyl thiourea [Ara-TU-DMRIE]	greater activity than naked DNA alone	≈	<	–
CCCCCCCCCCCCCCOCC(C[N+](C)(C)CCCNC(N)=S)OCCCCCCCCCCCCCC (centres unmarked) [GTU-DMRIE, DMRIE-γ-thiourea]	–	–	–	CAT activity in subcutaneous melanoma, among the compounds tested (BF16F10 melanoma tumors): particularly high activity
DMRIE Methyl carbamate [βMC]	–	≈	≈	–
γ-aminopropyl-DMRIE,α-glucosyl thiourea [Glc-TU-DMRIE]	greater activity than naked DNA alone	≧	≦	–
γ-aminopropyl-DMRIE,α-galactosyl thiourea [Gal-TU-DMRIE]	greater activity than naked DNA alone	≧	≈	–
Serine-δ-DMRIE amide [δ-ser-DMRIE]	–	≈	≦	–
CCCCCCCCCCCCCCOCC(C[N+](C)(C)CCO)OCCCCCCCCCCCCCC.[Br-] (racemic) [DMRIE, 1-propanaminium, N-(2-hydroxyethyl)-N,N-dimethyl-2,3-bis(tetradecyloxy)-bromide, (±)-, reference compound]	–	–	–	CAT activity, cytofectins compared with one another (murine B16 tumor cells): greatest; CAT expression in tumor cells (murine B16 tumor cells): significant CAT expression
pGlutamate-histidine-proline-γ-DMRIE amide [TRH-γ-DMRIE]	–	≈	–	–
CCCCCCCCCCCCOCC(C[N+](C)(C)CCCN)OCCCCCCCCCCCC (centres unmarked) [GAP-DLRIE]	–	–	–	CAT activity, cytofectins compared with one another (murine B16 tumor cells): nearly as effective as DMRIE; also recorded: significant activity; CAT expression in tumor cells (murine B16 tumor cells): significant CAT expression
γ-aminopropyl-DMRIE, Arginine Methyl Ester Urea [Arg(OMe)-GU-DMRIE]	–	–	–	CAT activity in subcutaneous melanoma, among the compounds tested (BF16F10 melanoma tumors): particularly high activity
DMRIE carboxylate (methionine-methyl ester) amide [DOx-Met-OMe]	–	–	<	–
CCCCCCCCCCCCCCOCC(C[N+](C)(C)CCCNC(=O)NC)OCCCCCCCCCCCCCC (centres unmarked) [GMU, γ-aminopropyl-DMRIE,Methyl Urea]	–	≧	≈	levels of β-gal activity compared with DMRIE (COS7 monkey kidney cells; COS7 cells): higher levels of activity than those achieved by DMRIE; Total β-gal expression (COS7 monkey kidney cells; COS7 cells, GMU-DMRIE alone (no DOPE)): significantly decreased; total expression of β-gal (COS7 monkey kidney cells; COS7 cells, GMU-DMRIE/DOPE ratio of 75:25): highly effective; levels of total β-gal activity compared with DMRIE ([2]; C2C12 cells): significantly higher levels of total activity than DMRIE; Total β-gal expression ([2]; C2C12 cells, GMU-DMRIE alone (no DOPE)): significantly decreased
Hydroxybutyl DMRIE Methyl Carbamate [δMC]	–	≈	≈	–
CCCCCCCCCCCCCCOCC(C[N+](C)(C)CCNC(=O)NC)OCCCCCCCCCCCCCC.[Br-] (stereo not drawn) [BMU, β-aminoethyl-DMRIE,Methyl Urea]	greater activity than naked DNA alone	≧	≦	activity in NP antibody assay, among the compounds tested [1]: particularly high activity
CCCCCCCCCCCCCCOCC(C[N+](C)(CCCN)CCCCN)OCCCCCCCCCCCCCC (centres unmarked) [PABA-DMRIE]	greater activity than naked DNA alone	–	–	activity in NP antibody assay, among the compounds tested [1]: particularly high activity
CCCCCCCCCCCCCCOCC(C[N+](C)(CCCN)CCCN)OCCCCCCCCCCCCCC (centres unmarked) [BPA-DMRIE]	greater activity than naked DNA alone	–	–	activity in NP antibody assay, among the compounds tested [1]: particularly high activity; CAT activity in subcutaneous melanoma, among the compounds tested (BF16F10 melanoma tumors): particularly high activity
